The first data set concerns the target T1, human Orexin 1 receptor (Homo sapiens, UniProt O43613).
T1 construct: stably expressing the full-length human Orexin 1 receptor; expressed in transfected cells; host or cells: CHO-K1 (CHO-K1/hOX1), co-expressing aequorin
T1 sequence (O43613 1-425): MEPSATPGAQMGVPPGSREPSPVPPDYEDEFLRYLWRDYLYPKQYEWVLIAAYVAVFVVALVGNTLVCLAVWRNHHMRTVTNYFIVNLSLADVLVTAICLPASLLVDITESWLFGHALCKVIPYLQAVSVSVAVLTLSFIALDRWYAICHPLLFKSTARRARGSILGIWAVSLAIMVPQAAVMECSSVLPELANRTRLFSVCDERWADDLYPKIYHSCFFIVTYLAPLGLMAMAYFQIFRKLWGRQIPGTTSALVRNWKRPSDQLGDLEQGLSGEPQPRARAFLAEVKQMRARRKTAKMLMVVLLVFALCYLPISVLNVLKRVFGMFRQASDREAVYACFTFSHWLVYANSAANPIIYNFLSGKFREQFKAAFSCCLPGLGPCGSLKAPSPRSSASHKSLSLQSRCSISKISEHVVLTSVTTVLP
The experiment in a line: Assay A: In vitro testing of OX1R potency: OX1R IP1 (HTRF, CHO-K1/hOX1 cells, Orexin A as agonist). The format is cell-based. Conditions: OX1R Kb at 0.5 nM Orexin A.
For the compound `CCN(C(=O)c1ccccc1-c1cnn(C)c1)[C@@H](C)COc1ncc(C(F)(F)F)cc1F` [Example 132], the “OX2R Kb/OX1R Kb” value was found to be 89.

As to `CCN(C(=O)c1cc(F)c(F)cc1-n1nccn1)[C@@H](C)COc1ncc(C(F)(F)F)cc1F` [Example 52], the “OX2R Kb/OX1R Kb” value is on record as 256.

In the case of `CCN(C(=O)c1cc(C#N)ccc1-n1nccn1)[C@@H](C)COc1ccc(C(F)(F)F)cn1` [Example 95], the “OX2R Kb/OX1R Kb” value amounted to 71.

The data set is the same for the next values; noted with them: OX1R Kb at 50 nM Orexin A.
For `CCN(C(=O)c1cccc(F)c1-c1ncccn1)[C@@H](C)COc1ccc(Br)cn1` [Example 125], the “OX2R Kb/OX1R Kb” value was 355.

`CCN(C(=O)c1cc(C)ccc1-c1ncccn1)[C@@H](C)COc1ccc(C(F)(F)F)cn1` [Example 105]: the “OX2R Kb/OX1R Kb” value came to 524.

Consider `CCN(C(=O)c1cc(F)cc(F)c1-n1nccn1)[C@@H](C)COc1ccc(C(F)(F)F)cn1` [Example 13], for which the “OX2R Kb/OX1R Kb” value was found to be 511.

Regarding `CCN(C(=O)c1ccc(F)c(F)c1-n1nccn1)[C@@H](C)COc1ncc(C(F)(F)F)cc1F` [Example 50], the “OX2R Kb/OX1R Kb” value is listed as 410.

As for `CCN(C(=O)c1cccc(Cl)c1-n1nccn1)[C@@H](C)COc1ccc(OC(F)(F)F)cn1` [Example 134], the “OX2R Kb/OX1R Kb” value is on record as 86.

With `CCN(C(=O)c1c(-n2nccn2)ccc(C)c1F)[C@@H](C)COc1ccc(C(F)(F)F)cn1` [Example 92], the “OX2R Kb/OX1R Kb” value was 640.

With `CCN(C(=O)c1cc(C#N)ccc1-n1nccn1)[C@@H](C)COc1ccc(C(F)(F)F)cn1` [Example 95], the “OX2R Kb/OX1R Kb” value was determined as 74.

The same data set, now with this note: Orexin A 0.5 nM; read-out: OX1R Kb (Orexin A concentration used).
As for `CCN(C(=O)c1ccccc1-c1cnn(C)c1)[C@@H](C)COc1ncc(C(F)(F)F)cc1F` [Example 132], the Kb is 1.7 nM.

Turning to `CCN(C(=O)c1cc(F)c(F)cc1-n1nccn1)[C@@H](C)COc1ncc(C(F)(F)F)cc1F` [Example 52], the Kb was determined as 2.1 nM.

Regarding `CCN(C(=O)c1cc(C#N)ccc1-n1nccn1)[C@@H](C)COc1ccc(C(F)(F)F)cn1` [Example 95], the Kb is 0.52 nM.

The same data set, now with this note: Orexin A 50 nM; read-out: OX1R Kb (Orexin A concentration used).
Take `CCN(C(=O)c1cccc(F)c1-c1ncccn1)[C@@H](C)COc1ccc(Br)cn1` [Example 125]: the Kb was found to be 0.076 nM.

On to `CCN(C(=O)c1cc(C)ccc1-c1ncccn1)[C@@H](C)COc1ccc(C(F)(F)F)cn1` [Example 105], for which the Kb is 0.021 nM.

As for `CCN(C(=O)c1cc(F)cc(F)c1-n1nccn1)[C@@H](C)COc1ccc(C(F)(F)F)cn1` [Example 13], the Kb came out at 0.18 nM.

Take `CCN(C(=O)c1ccc(F)c(F)c1-n1nccn1)[C@@H](C)COc1ncc(C(F)(F)F)cc1F` [Example 50]: the Kb amounted to 0.69 nM.

On to `CCN(C(=O)c1cccc(Cl)c1-n1nccn1)[C@@H](C)COc1ccc(OC(F)(F)F)cn1` [Example 134], for which the Kb was 0.14 nM.

As to `CCN(C(=O)c1c(-n2nccn2)ccc(C)c1F)[C@@H](C)COc1ccc(C(F)(F)F)cn1` [Example 92], the Kb was determined as 0.025 nM.

Regarding `CCN(C(=O)c1cc(C#N)ccc1-n1nccn1)[C@@H](C)COc1ccc(C(F)(F)F)cn1` [Example 95], the Kb stood at 0.5 nM.

A further data set concerns the target T2, human orexin 2 receptor (Homo sapiens, UniProt O43614).
T2 construct: stably expressing the full-length human orexin 2 receptor; expressed in transfected cells; host or cells: CHO-K1 (CHO-K1/hOX2), co-expressing aequorin
T2 sequence (O43614 1-444): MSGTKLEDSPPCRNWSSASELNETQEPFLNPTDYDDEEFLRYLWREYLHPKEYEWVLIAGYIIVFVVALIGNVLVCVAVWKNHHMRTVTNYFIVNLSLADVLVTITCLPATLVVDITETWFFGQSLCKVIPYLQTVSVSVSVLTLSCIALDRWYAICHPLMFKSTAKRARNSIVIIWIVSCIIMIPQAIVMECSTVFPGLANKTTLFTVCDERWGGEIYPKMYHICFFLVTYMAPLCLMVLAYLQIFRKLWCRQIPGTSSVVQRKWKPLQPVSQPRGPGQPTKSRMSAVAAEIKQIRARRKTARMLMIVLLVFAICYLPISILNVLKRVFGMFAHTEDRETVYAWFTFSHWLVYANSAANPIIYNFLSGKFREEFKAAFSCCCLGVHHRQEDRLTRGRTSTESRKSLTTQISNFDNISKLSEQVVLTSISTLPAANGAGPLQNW
The experiment in a line: Assay B: In vitro testing of OX2R potency: OX2R IP1 (HTRF, CHO-K1/hOX2 cells, Orexin A as agonist). The format is cell-based. Conditions: Orexin A 0.5 nM. From the text:
Activation of the orexin receptors expressed in cell lines results in an increase in intracellular IP3 concentration. IP1, a downstream metabolite of IP3, accumulates in cells following receptor activation and is stable in the presence of LiCl. Using Homogeneous Time-Resolved Fluorescence technology with Lumi4-Tb cryptate (commercially available from Cisbio Bioassay.) and a suitable fluorescence plate reader. […] Chem. Genomics 2009, 3, 22-32. This technique is used to characterize pharmacological modification of the orexin receptors.
B. In Vitro Testing of OX2R Potency: OX2R IP1
IP1 measurements are performed in CHO-K1 cells stably expressing the full-length human orexin 2 receptor and the aequorin photoprotein. Cells are cultivated in Ham's nutrient mixture F12 medium with 10% fetal calf serum, in a 37° C., 95% humidity and 5% CO2 incubator. The CHO-K1/hOX2 cell mass is expanded to larger cell numbers. The cells are obtained as frozen cells in cryo-vials and stored until use at −150° C. The viability of the cells after thawing is >90%. In preparation for the assay, 24 hours before the assay, the cells are thawed at 37° C. and immediately diluted with cell culture medium. After centrifugation, the cell pellet is resuspended in medium and then distributed into the assay plates with a density of 5000 cells/25 μL per well. The plates are incubated for one hour at room temperature to reduce edge effects before they are incubated for 24 hours at 37° C./5% CO2. Compounds are prepared by a 8-point serial dilution in DMSO and a final dilution step into assay buffer (HBSS with 20 mM HEPES, 0.1% BSA and 50 mM LiCl, pH 7.4) to ensure a final DMSO concentration of 1% in the assay.
On the day of the assay, cells in the plate are washed twice with 60 μL assay buffer (20 μL buffer remained in the wells after washing), followed by adding 5 μL per well of compounds diluted in assay buffer. After 15 minutes of incubation at room temperature 5 μL per well of Orexin A peptide (final concentration: 0.5 nM) dissolved in assay buffer is added to the assay plate. The assay plate is incubated for 60 minutes at 37° C. Then 5 μL per well of Anti-IP1-Cryptate Tb solution and 5 μL per well of IP1-d2 dilution are added to all well of the plate and the plate is incubated for a further 60 minutes light protected at room temperature. The emission at 615 nm and 665 nm (Excitation wavelength: 320 nm) are measured using an EnVision reader (PerkinElmer). The ratio between the emission at 665 nm and 615 is calculated by the reader.
8-point four parametric non-linear curve fitting and determination of IC50 values and Hill slopes is performed using a regular analysis software e.g. AssayExplorer (Accelrys). In order to establish an agonist concentration independent parameter, Kb values are calculated using the following equation: IC50/((2+(A/EC50)n)^1/n−1) (with A=concentration agonist, EC50=EC50 agonist, n=Hill slope agonist) (see P. Leff, I. G. Dougall, Trends Pharmacol. Sci. 1993, 14(4), 110-112).
Kb values from Assay A (OX1R) and Assay B (OX2R) can then provide a selectivity ratio which is independent of the agonist (Orexin A) concentration.
Compound `CCN(C(=O)c1cccc(F)c1-c1ncccn1)[C@@H](C)COc1ccc(Br)cn1` [Example 125] displayed a Kb of 27 nM.

Regarding `CCN(C(=O)c1cc(C)ccc1-c1ncccn1)[C@@H](C)COc1ccc(C(F)(F)F)cn1` [Example 105], the Kb is 11 nM.

In turn, `CCN(C(=O)c1cc(F)cc(F)c1-n1nccn1)[C@@H](C)COc1ccc(C(F)(F)F)cn1` [Example 13] displayed a Kb of 92 nM.

`CCN(C(=O)c1ccc(F)c(F)c1-n1nccn1)[C@@H](C)COc1ncc(C(F)(F)F)cc1F` [Example 50] registered a Kb of 283 nM.

Regarding `CCN(C(=O)c1cccc(Cl)c1-n1nccn1)[C@@H](C)COc1ccc(OC(F)(F)F)cn1` [Example 134], the Kb turned out to be 12 nM.

Regarding `CCN(C(=O)c1c(-n2nccn2)ccc(C)c1F)[C@@H](C)COc1ccc(C(F)(F)F)cn1` [Example 92], the Kb amounted to 16 nM.

Take `CCN(C(=O)c1ccccc1-c1cnn(C)c1)[C@@H](C)COc1ncc(C(F)(F)F)cc1F` [Example 132]: the Kb is 152 nM.

`CCN(C(=O)c1cc(F)c(F)cc1-n1nccn1)[C@@H](C)COc1ncc(C(F)(F)F)cc1F` [Example 52] had a Kb of 538 nM.

`CCN(C(=O)c1cc(C#N)ccc1-n1nccn1)[C@@H](C)COc1ccc(C(F)(F)F)cn1` [Example 95] registered a Kb of 37 nM.

System in a further data set: not listed separately
Kind of data set: Assay C: Metabolic stability in human liver microsomes (Human MST). The format is in vitro ADME. Conditions: pooled human liver microsomes, pH 7.6; human liver microsomes 1 mg/mL, compound 1 μM, 37° C., NADPH; read-out: Human MST t1/2. As for the experimental part: C. Assessment of Metabolic Stability in Human Liver Microsomes (Human MST)
The metabolic stability of the compounds according to the invention may be investigated as follows:
The metabolic degradation of the test compound is assayed at 37° C. with pooled human liver microsomes. The final incubation volume of 100 μL per time point contains TRIS buffer pH 7.6 at room temperature (0.1 M), MgCl2 (5 mM), microsomal protein (1 mg/mL) and the test compound at a final concentration of 1 μM. Following a short pre-incubation period at 37° C., the reactions are initiated by addition of beta-nicotinamide adenine dinucleotide phosphate, reduced form (NADPH, 1 mM), and terminated by transferring an aliquot into solvent after different time points. After centrifugation (10000 g, 5 min), an aliquot of the supernatant is assayed by LC-MS/MS for the amount of parent compound. The half-life (t1/2) is determined by the slope of the semi-logarithmic plot of the concentration-time profile.
As for `CCN(C(=O)c1cccc(F)c1-c1ncccn1)[C@@H](C)COc1ccc(Br)cn1` [Example 125], the half-life at 1 μM was above 130 min.

With `CCN(C(=O)c1cc(C)ccc1-c1ncccn1)[C@@H](C)COc1ccc(C(F)(F)F)cn1` [Example 105], the half-life at 1 μM turned out to be 10 min.

`CCN(C(=O)c1cc(F)cc(F)c1-n1nccn1)[C@@H](C)COc1ccc(C(F)(F)F)cn1` [Example 13]: the half-life at 1 μM worked out at 49 min.

Turning to `CCN(C(=O)c1ccc(F)c(F)c1-n1nccn1)[C@@H](C)COc1ncc(C(F)(F)F)cc1F` [Example 50], the half-life at 1 μM came to 46 min.

Consider `CCN(C(=O)c1cccc(Cl)c1-n1nccn1)[C@@H](C)COc1ccc(OC(F)(F)F)cn1` [Example 134], for which the half-life at 1 μM was found to be 64 min.

Take `CCN(C(=O)c1c(-n2nccn2)ccc(C)c1F)[C@@H](C)COc1ccc(C(F)(F)F)cn1` [Example 92]: the half-life at 1 μM is 18 min.

For the compound `CCN(C(=O)c1ccccc1-c1cnn(C)c1)[C@@H](C)COc1ncc(C(F)(F)F)cc1F` [Example 132], the half-life at 1 μM was 11 min.

Take `CCN(C(=O)c1cc(F)c(F)cc1-n1nccn1)[C@@H](C)COc1ncc(C(F)(F)F)cc1F` [Example 52]: the half-life at 1 μM was 38 min.

For the compound `CCN(C(=O)c1cc(C#N)ccc1-n1nccn1)[C@@H](C)COc1ccc(C(F)(F)F)cn1` [Example 95], the half-life at 1 μM is above 130 min.

These data come from US10787432B2, “N-[(pyridyloxy)propanyl]benzamides” (Boehringer Ingelheim International GmbH, priority 2016, dated 2020).
